# According to US20260317324A1, “BIFUNCTIONAL COMPOUNDS FOR DEGRADING BRAF VIA UBIQUITIN PROTEOSOME PATHWAY” (Nurix Therapeutics, Inc., priority 2023, published 2026):
# Columns and labels:
# Assay type in all cases: cell-based
# BRAF D594G = molecular target: T1, BRAF D594G (Homo sapiens, UniProt P15056, D594G); assay: BRAF HiBiT degradation assay, C-terminal HiBiT-tagged BRAF D594G overexpressed in HCT-116 BRAF−/− cells (clone 63), Nano-Glo HiBiT Lytic assay; details: BRAF D594G (Class 3), HCT-116 BRAF−/− cells; for DC50: DC50 at 50% degradation; for Dmax: observed Dmax relative to DMSO control
# T1 construct: Horizon Discovery (HCT-116 BRAF−/− cells); host or cells: HCT-116 BRAF−/− cells, clone 63, lentiviral transduction
# T1 sequence (P15056 whole entry D594G): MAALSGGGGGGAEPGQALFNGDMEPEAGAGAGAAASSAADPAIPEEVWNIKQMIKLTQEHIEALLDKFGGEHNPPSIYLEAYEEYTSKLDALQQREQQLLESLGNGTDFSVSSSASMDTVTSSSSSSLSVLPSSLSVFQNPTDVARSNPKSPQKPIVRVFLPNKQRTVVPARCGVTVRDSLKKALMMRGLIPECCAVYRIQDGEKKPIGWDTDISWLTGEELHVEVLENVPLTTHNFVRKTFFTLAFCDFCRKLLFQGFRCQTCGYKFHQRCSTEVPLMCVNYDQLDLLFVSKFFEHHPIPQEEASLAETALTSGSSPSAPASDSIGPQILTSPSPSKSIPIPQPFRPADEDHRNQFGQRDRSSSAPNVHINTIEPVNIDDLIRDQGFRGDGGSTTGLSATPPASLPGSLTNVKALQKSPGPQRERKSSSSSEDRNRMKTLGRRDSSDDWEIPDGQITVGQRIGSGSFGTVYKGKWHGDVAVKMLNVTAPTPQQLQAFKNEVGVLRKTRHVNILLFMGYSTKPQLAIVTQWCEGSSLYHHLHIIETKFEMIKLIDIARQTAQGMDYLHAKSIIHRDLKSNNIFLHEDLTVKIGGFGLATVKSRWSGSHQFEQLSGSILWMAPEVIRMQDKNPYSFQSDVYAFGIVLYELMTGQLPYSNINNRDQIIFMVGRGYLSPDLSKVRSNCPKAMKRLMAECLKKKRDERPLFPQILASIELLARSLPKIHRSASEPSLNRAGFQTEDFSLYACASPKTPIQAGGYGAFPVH
# How it was run: (§1)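 First, the stable HiBiT-tagged cells were plated and incubated for 24 h. Next, compound was added in duplicate as an 11-point series with a 1 μM top concentration. Lytic detection followed, with DMSO-treated parental cells used for background. Finally, DC50 and Obs. Dmax relative to DMSO were derived from the % protein remaining curves.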
# BRAF G466V = molecular target: T2, BRAF G466V (Homo sapiens, UniProt P15056, G466V); assay: BRAF HiBiT degradation assay, C-terminal HiBiT-tagged BRAF G466V overexpressed in HCT-116 BRAF−/− cells (clone 8), Nano-Glo HiBiT Lytic assay; details: BRAF G466V (Class 3), HCT-116 BRAF−/− cells; for DC50: DC50 at 50% degradation; for Dmax: observed Dmax relative to DMSO control
# T2 construct: Horizon Discovery (HCT-116 BRAF−/− cells); host or cells: HCT-116 BRAF−/− cells, clone 8, lentiviral transduction
# T2 sequence (P15056 whole entry G466V): as the sequence (P15056 whole entry D594G) above, with G466V, G594D counted along it
# How it was run: as §1
# BRAF V600E = molecular target: T3, BRAF V600E (Homo sapiens, UniProt P15056, V600E); assay: BRAF HiBiT degradation assay, C-terminal HiBiT-tagged BRAF V600E A375 cells (clone 1F10), Nano-Glo HiBiT Lytic assay; details: A375 (BRAF V600E, Class 1); for DC50: DC50 at 50% degradation; for Dmax: A-375, observed Dmax, % protein degraded relative to DMSO control
# T3 construct: endogenous C-terminal HiBiT fusion tag on BRAF V600E allele; endogenous in cells; host or cells: A375 clone 1F10 (CRISPR-Cas9 knock-in of the HiBiT tag; parental A375 from ATCC)
# T3 sequence (P15056 whole entry V600E, the tested form may be a part): as the sequence (P15056 whole entry D594G) above, with G594D, V600E counted along it
# How it was run: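 Degradation is measured as loss of HiBiT signal from BRAF V600E tagged at its native locus in A375 cells. Doses span 1 μM to 0.01 nM in half-log steps, in duplicate. Percent remaining is calculated against DMSO controls after subtracting untagged A375 background, and curve fitting yields DC50 and observed Dmax.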
# BRAF G469A = molecular target: T4, BRAF G469A (Homo sapiens, UniProt P15056, G469A); assay: BRAF HiBiT degradation assay, C-terminal HiBiT-tagged BRAF G469A overexpressed in HCT-116 BRAF−/− cells (clone 34), Nano-Glo HiBiT Lytic assay; details: BRAF G469A (Class 2), HCT-116 BRAF−/− cells; for DC50: DC50 at 50% degradation; for Dmax: observed Dmax relative to DMSO control
# T4 construct: Horizon Discovery (HCT-116 BRAF−/− cells); host or cells: HCT-116 BRAF−/− cells, clone 34, lentiviral transduction
# T4 sequence (P15056 whole entry G469A): as the sequence (P15056 whole entry D594G) above, with G469A, G594D counted along it
# How it was run: as §1
Compound,DC50 (BRAF D594G),Dmax (BRAF D594G),DC50 (BRAF G466V),Dmax (BRAF G466V),DC50 (BRAF V600E),Dmax (BRAF V600E),DC50 (BRAF G469A),Dmax (BRAF G469A)
"CCCS(=O)(=O)Nc1cccc(-c2nc(C3CCC4(CC3)CCN(CC3CCN(c5ccc(C6CCC(=O)NC6=O)cn5)CC3)CC4)sc2-c2ccnc(N)n2)c1F (racemic) [Compound 260, Rac-N-{3-[5-(2-aminopyrimidin-4-yl)-2-{3-[(1-{5-[(3R)-2,6-dioxopiperidin-3-yl]pyridin-2-yl}piperidin-4-yl)methyl]-3-azaspiro[5.5]undecan-9-yl}-1,3-thiazol-4-yl]-2-fluorophenyl}propane-1-sulfonamide]",> 500 nM,< 30%,> 500 nM,< 30%,10 to 50 nM,30 to 70%,> 500 nM,< 30%
"CCCS(=O)(=O)Nc1cccc(-c2nc(C3CCN(C(=O)C4CCN(CC5CCN(c6ccc(C7CCC(=O)NC7=O)cn6)CC5)CC4)CC3)sc2-c2ccnc(N)n2)c1F (racemic) [Compound 261, Rac-N-{3-[5-(2-aminopyrimidin-4-yl)-2-(1-{1-[(1-{5-[(3R)-2,6-dioxopiperidin-3-yl]pyridin-2-yl}piperidin-4-yl)methyl]piperidine-4-carbonyl}piperidin-4-yl)-1,3-thiazol-4-yl]-2-fluorophenyl}propane-1-sulfonamide]",> 500 nM,30 to 70%,50 to 500 nM,30 to 70%,< 10 nM,> 70%,> 500 nM,30 to 70%
"O=C1CCC(N2C(=O)c3ccc(N4CC(CN5CC(c6ccc(-n7cc(-c8ccc9c(c8)CC/C9=N/O)c(-c8ccncc8)n7)cc6)C5)C4)cc3C2=O)C(=O)N1 (racemic) [Compound 262, Rac-2-[(3R)-2,6-dioxopiperidin-3-yl]-5-(3-{[3-(4-{4-[(1Z)-1-(hydroxyimino)-2,3-dihydro-1H-inden-5-yl]-3-(pyridin-4-yl)-1H-pyrazol-1-yl}phenyl)azetidin-1-yl]methyl}azetidin-1-yl)-2,3-dihydro-1H-isoindole-1,3-dione]",> 500 nM,< 30%,> 500 nM,< 30%,< 10 nM,> 70%,> 500 nM,< 30%
"O=C1CCC(c2ccc(N3CCC(CN4CCN(c5ccc(-n6cc(-c7cc(Cl)cc(NS(=O)(=O)N8CCCC8)c7F)c(-c7ccncc7)n6)cc5)CC4)CC3)nc2)C(=O)N1 (racemic) [Compound 265, Rac-(R)—N-(5-chloro-3-(1-(4-(4-((1-(5-(2,6-dioxopiperidin-3-yl)pyridin-2-yl)piperidin-4-yl)methyl)piperazin-1-yl)phenyl)-3-(pyridin-4-yl)-1H-pyrazol-4-yl)-2-fluorophenyl)pyrrolidine-1-sulfonamide]",< 10 nM,> 70%,< 10 nM,> 70%,< 10 nM,> 70%,< 10 nM,> 70%
"O=C1CCC(c2ccc(N3CCC(CN4CCN(c5ccc(-n6cc(-c7cc(Cl)cc(NS(=O)(=O)N8CCCC8)c7F)c(-c7ccncc7)n6)c(F)c5)CC4)CC3)nc2)C(=O)N1 (racemic) [Compound 266, Rac-(R)—N-(5-chloro-3-(1-(4-(4-((1-(5-(2,6-dioxopiperidin-3-yl)pyridin-2-yl)piperidin-4-yl)methyl)piperazin-1-yl)-2-fluorophenyl)-3-(pyridin-4-yl)-1H-pyrazol-4-yl)-2-fluorophenyl)pyrrolidine-1-sulfonamide]",< 10 nM,30 to 70%,< 10 nM,> 70%,< 10 nM,> 70%,10 to 50 nM,> 70%
"O=C1CCC(c2ccc(N3CCC(CN4CCN(c5ccc(-n6cc(-c7cc(F)cc(NS(=O)(=O)N8CCCC8)c7F)c(-c7ccncc7)n6)cc5)CC4)CC3)nc2)C(=O)N1 (racemic) [Compound 267, Rac-(R)—N-(3-(1-(4-(4-((1-(5-(2,6-dioxopiperidin-3-yl)pyridin-2-yl)piperidin-4-yl)methyl)piperazin-1-yl)phenyl)-3-(pyridin-4-yl)-1H-pyrazol-4-yl)-2,5-difluorophenyl)pyrrolidine-1-sulfonamide]",< 10 nM,> 70%,< 10 nM,> 70%,< 10 nM,> 70%,10 to 50 nM,> 70%
"O=C1CCC(c2ccc(N3CCC(F)(CN4CCN(c5ccc(-n6cc(-c7cc(Cl)cc(NS(=O)(=O)N8CCCC8)c7F)c(-c7ccncc7)n6)cc5)CC4)CC3)cc2)C(=O)N1 (racemic) [Compound 284, Rac-N-{5-chloro-3-[1-(4-{4-[(1-{4-[(3R)-2,6-dioxopiperidin-3-yl]phenyl}-4-fluoropiperidin-4-yl)methyl]piperazin-1-yl}phenyl)-3-(pyridin-4-yl)-1H-pyrazol-4-yl]-2-fluorophenyl}pyrrolidine-1-sulfonamide]",< 10 nM,> 70%,< 10 nM,> 70%,10 to 50 nM,> 70%,10 to 50 nM,> 70%

# Second part, the molecule after the results:
DC50 (BRAF D594G),Dmax (BRAF D594G),DC50 (BRAF G466V),Dmax (BRAF G466V),DC50 (BRAF V600E),Dmax (BRAF V600E),DC50 (BRAF G469A),Dmax (BRAF G469A),Compound
< 10 nM,> 70%,< 10 nM,> 70%,< 10 nM,> 70%,< 10 nM,> 70%,"O=C1CCC(c2ccc(N3CCC(CN4CCN(c5ccc(-n6cc(-c7cc(Cl)cc(NS(=O)(=O)N8CCCC8)c7F)c(-c7ccncc7)n6)nc5)CC4)CC3)nc2)C(=O)N1 (racemic) [Compound 288, Rac-N-{5-chloro-3-[1-(5-{4-[(1-{5-[(3R)-2,6-dioxopiperidin-3-yl]pyridin-2-yl}piperidin-4-yl)methyl]piperazin-1-yl}pyridin-2-yl)-3-(pyridin-4-yl)-1H-pyrazol-4-yl]-2-fluorophenyl}pyrrolidine-1-sulfonamide]"
< 10 nM,> 70%,< 10 nM,> 70%,< 10 nM,> 70%,10 to 50 nM,> 70%,"CCN(C)S(=O)(=O)Nc1cc(Cl)cc(-c2cn(-c3ccc(N4CCN(CC5CCN(c6ccc(C7CCC(=O)NC7=O)cn6)CC5)CC4)cc3)nc2-c2ccncc2)c1F (racemic) [Compound 308, Rac-(3R)-3-(6-{4-[(4-{4-[4-(5-chloro-3-{[ethyl(methyl)sulfamoyl]amino}-2-fluorophenyl)-3-(pyridin-4-yl)-1H-pyrazol-1-yl]phenyl}piperazin-1-yl)methyl]piperidin-1-yl}pyridin-3-yl)piperidine-2,6-dione]"
< 10 nM,> 70%,< 10 nM,> 70%,< 10 nM,> 70%,< 10 nM,30 to 70%,"CCN(C)S(=O)(=O)Nc1cc(Cl)cc(-c2cn(-c3ccc(N4CCN(CC5CCN(c6ccc(C7CCC(=O)NC7=O)cn6)CC5)CC4)cn3)nc2-c2ccncc2)c1F (racemic) [Compound 312, Rac-(3R)-3-(6-{4-[(4-{6-[4-(5-chloro-3-{[ethyl(methyl)sulfamoyl]amino}-2-fluorophenyl)-3-(pyridin-4-yl)-1H-pyrazol-1-yl]pyridin-3-yl}piperazin-1-yl)methyl]piperidin-1-yl}pyridin-3-yl)piperidine-2,6-dione]"
< 10 nM,30 to 70%,10 to 50 nM,> 70%,< 10 nM,> 70%,50 to 500 nM,30 to 70%,"CCC(C)S(=O)(=O)Nc1cc(Cl)cc(-c2cn(-c3ccc(N4CCN(CC5CCN(c6ccc(N7CCC(=O)NC7=O)cc6)CC5)CC4)cc3)nc2-c2ccncc2)c1F (racemic) [Compound 328, Rac-(2R)—N-[5-chloro-3-(1-{4-[4-({1-[4-(2,4-dioxo-1,3-diazinan-1-yl)phenyl]piperidin-4-yl}methyl)piperazin-1-yl]phenyl}-3-(pyridin-4-yl)-1H-pyrazol-4-yl)-2-fluorophenyl]butane-2-sulfonamide]"
